In brackets after ≈: the same amount, converted by molar mass. Non-standard residues stand in square brackets, D forms with d. Residues, ends and D or L forms follow the SMILES beside them. No end group written: not given here.
Assays:
[1] = test system: Escherichia coli ATCC25922; assay: microbe, parasite or virus in culture; conditions: ATCC25922, 16 h
Method: (§1) The antimicrobial activity of the designed peptides was examined using the micro-dilution method described previously. The bacteria were cultured for 16 h in MHB at 37 °C, and the microbial suspension was diluted to a final concentration of 10^5 colony-forming units (CFU)/mL. Then, 50 µL of MHB containing different concentrations peptides (0.25–256 µM) was mixed with 50 µL of bacterial solution, and the mixture was added to a 96-well plate. […] The assays were performed three times.

RAW 264.7 cells = assay: Cytotoxicity, CCK-8 assay; assay type: cell-based, murine; conditions: 64 μM peptide, 16 h, CCK-8, OD 450 nm
Method: (§2) The cytotoxicity was detected according to a CCK-8 assay as described previously. Briefly, RAW 264.7 and HEK293T cells were placed into 96-well plates at a density of 1.0–2.0 × 10^5, and then cultured for 16 h under conditions of 5% CO2. Then, two-fold diluted peptides in DMEM were added to the plates. After 16 h of culturing, CCK-8 (10%, v/v) was put into each well containing cell culture, and mixtures were cultured for 2 h. The cytotoxicity assay was examined by measuring the OD of the mixtures at 450 nm (Microplate reader, TECAN GENios F129004, Tecan, Salzburg, Austria). The assays were performed three times.

Gram-positive bacteria = assay: Geometric mean of MICs and therapeutic index, Gram (+); assay type: cell-based; conditions: geometric mean over the Gram-positive strains of Table 2; 256 μM used when no activity at 128 μM
Method: as §1

E. coli ATCC25922 = assay type: cell-based, Escherichia coli; conditions: for MIC after pH treatment, pH 4 / MIC after pH treatment, pH 6 / MIC after pH treatment, pH 8 / MIC after pH treatment, pH 10: ATCC25922, 1 h; for MIC after temperature treatment, 0 °C / MIC after temperature treatment, 37 °C / MIC after temperature treatment, 100 °C / MIC in the presence of FeCl3 / MIC in the presence of KCl / MIC in the presence of MgCl2 / MIC in the presence of NH4Cl / MIC in the presence of NaCl / MIC in the presence of ZnCl2 / MIC, Control / MIC, Control (pH 7): ATCC25922, 16 h
Method: as §1
The salt, temperature, and pH sensitivities of designed peptides were determined by MIC assay as described previously. For the salt sensitivity assay, peptides were diluted in deionized water containing different salts, and mixed with E. coli ATCC25922 (10^5 CFU/mL). The final physiological concentrations of different salts were as follows: 150 mM NaCl, 4.5 mM KCl, 6 μM NH4Cl, 1 mM MgCl2, 8 μM ZnCl2, and 4 μM FeCl3. For temperature sensitivity, peptides were cooled on ice for 10 min, and incubated at 37 °C and 100 °C for 30 min. For pH sensitivity, peptides were treated with different pH for 1 h. Briefly, peptides were diluted in deionized water, and the pH of the solution was adjusted to 4.0, 6.0, 8.0, and 10.0 with HCl or NaOH. The subsequent steps were the same as for the MIC measurements. These tests were performed three times.

HEK293T cells = assay: Cytotoxicity, CCK-8 assay; assay type: cell-based, human; conditions: 64 μM peptide, 16 h, CCK-8, OD 450 nm
Method: as §2

Gram-negative bacteria = conditions: 16 h
Method: as §1

[2] = test system: Staphylococcus aureus ATCC25923; conditions: ATCC25923, 16 h
Method: as §1

[3] = test system: Pseudomonas aeruginosa ATCC27853; conditions: ATCC27853, 16 h
Method: as §1

[4] = test system: Salmonella Pullorum NCTC5776; conditions: NCTC5776, 16 h
Method: as §1

E. coli K88 = conditions: micro-dilution in MHB, 10^5 CFU/mL, 16 h, OD 492 nm, performed three times
Method: as §1

[5] = test system: Klebsiella pneumonia CMCC46117; conditions: CMCC46117, 16 h
Method: as §1

S. aureus ATCC29213 = conditions: ATCC29213, 16 h
Method: as §1

[6] = test system: methicillin-resistant S. aureus ATCC43300; conditions: ATCC43300, 16 h
Method: as §1

[7] = test system: Enterococcus faecalis ATCC29212; conditions: ATCC29212, 16 h
Method: as §1

| Compound | MIC [1] | cell survival rate (RAW 264.7 cells) | GM (geometric mean of MICs), Gram (+) (Gram-positive bacteria) | MIC after pH treatment, pH 4 (E. coli ATCC25922) | MIC after pH treatment, pH 6 (E. coli ATCC25922) | MIC after pH treatment, pH 8 (E. coli ATCC25922) | MIC after pH treatment, pH 10 (E. coli ATCC25922) | MIC after temperature treatment, 0 °C (E. coli ATCC25922) | MIC after temperature treatment, 37 °C (E. coli ATCC25922) | MIC after temperature treatment, 100 °C (E. coli ATCC25922) | MIC in the presence of FeCl3 (E. coli ATCC25922) | MIC in the presence of KCl (E. coli ATCC25922) | MIC in the presence of MgCl2 (E. coli ATCC25922) | MIC in the presence of NH4Cl (E. coli ATCC25922) | MIC in the presence of NaCl (E. coli ATCC25922) | MIC in the presence of ZnCl2 (E. coli ATCC25922) | MIC, Control (E. coli ATCC25922) | MIC, Control (pH 7) (E. coli ATCC25922) | cell survival rate (HEK293T cells) | MIC ([1]; Escherichia coli) | also measured |
| --- | --- | --- | --- | --- | --- | --- | --- | --- | --- | --- | --- | --- | --- | --- | --- | --- | --- | --- | --- | --- | --- |
| N=C(N)NCCC[C@H](NC(=O)CNC(=O)[C@H]1CCCN1C(=O)[C@H](CCCNC(=N)N)NC(=O)[C@H](CCCNC(=N)N)NC(=O)[C@H](Cc1ccccc1)NC(=O)[C@H](Cc1ccccc1)NC(=O)[C@H](CCCNC(=N)N)NC(=O)[C@H](Cc1ccccc1)NC(=O)[C@@H](N)Cc1ccccc1)C(=O)N[C@@H](CCCNC(=N)N)C(=O)N[C@@H](Cc1ccccc1)C(=O)N[C@@H](Cc1ccccc1)C(=O)N[C@@H](CCCNC(=N)N)C(=O)N[C@@H](Cc1ccccc1)C(=O)N[C@@H](Cc1ccccc1)C(N)=O [FRpG] (H-FFRFFRR[dP]GRRFFRFF-NH2) | 8 µM (≈ 18.3 µg/mL) | 78% | 22.6 µM | 16 µM | 8 µM | 8 µM | 32 µM | 8 µM (≈ 18.3 µg/mL) | 8 µM (≈ 18.3 µg/mL) | 8 µM (≈ 18.3 µg/mL) | 8 µM | 8 µM | 8 µM | 8 µM | 32 µM | 8 µM | 8 µM (≈ 18.3 µg/mL) | 8 µM | 85% | – | GM (geometric mean of MICs), Gram (−) (Gram-negative bacteria): 13.9 µM; MIC [2]: 16 µM (≈ 36.6 µg/mL); MIC [3]: 32 µM (≈ 73.1 µg/mL); MIC [4]: 16 µM (≈ 36.6 µg/mL); MIC (E. coli K88): 8 µM (≈ 18.3 µg/mL); MIC [5]: 16 µM (≈ 36.6 µg/mL); MIC (S. aureus ATCC29213): 16 µM (≈ 36.6 µg/mL); MIC [6]: 32 µM (≈ 73.1 µg/mL); MIC [7]: 32 µM (≈ 73.1 µg/mL) |
| LLRLLRRGGRRLLRLL-NH2 [LRGG] | 2 µM | 84% | 22.6 µM | 2 µM | 2 µM | 2 µM | 4 µM | 2 µM | 2 µM | 2 µM | 2 µM | 2 µM | 4 µM | 2 µM | 8 µM | 2 µM | 2 µM | 2 µM | 91% | – | GM (geometric mean of MICs), Gram (−) (Gram-negative bacteria): 4.6 µM; MIC [2]: 16 µM; MIC [3]: 8 µM; MIC [4]: 4 µM; MIC (E. coli K88): 4 µM; MIC [5]: 8 µM; MIC (S. aureus ATCC29213): 16 µM; MIC [6]: 32 µM; MIC [7]: 32 µM |
| CC(C)C[C@H](NC(=O)CN)C(=O)N[C@@H](CCCNC(=N)N)C(=O)N[C@@H](CC(C)C)C(=O)N[C@@H](CC(C)C)C(=O)N[C@@H](CCCNC(=N)N)C(=O)N[C@@H](CCCNC(=N)N)C(=O)N[C@@H](CC(C)C)C(=O)N[C@@H](CC(C)C)C(=O)N[C@@H](CCCNC(=N)N)C(=O)N[C@@H](CCCNC(=N)N)C(=O)N[C@@H](CC(C)C)C(=O)N[C@@H](CC(C)C)C(=O)N[C@@H](CCCNC(=N)N)C(=O)N[C@@H](CC(C)C)C(=O)N1CCC[C@@H]1C(N)=O [LRα] (H-GLRLLRRLLRRLLRL[dP]-NH2) | 2 µM (≈ 4.03 µg/mL) | less than 10% | 8 µM | 2 µM | 2 µM | 2 µM | 4 µM | 2 µM (≈ 4.03 µg/mL) | 2 µM (≈ 4.03 µg/mL) | 2 µM (≈ 4.03 µg/mL) | 2 µM | 2 µM | 2 µM | 2 µM | 8 µM | 2 µM | 2 µM (≈ 4.03 µg/mL) | 2 µM | less than 10% | – | GM (geometric mean of MICs), Gram (−) (Gram-negative bacteria): 3 µM; MIC [2]: 4 µM (≈ 8.05 µg/mL); MIC [3]: 4 µM (≈ 8.05 µg/mL); MIC [4]: 2 µM (≈ 4.03 µg/mL); MIC (E. coli K88): 4 µM (≈ 8.05 µg/mL); MIC [5]: 4 µM (≈ 8.05 µg/mL); MIC (S. aureus ATCC29213): 8 µM (≈ 16.1 µg/mL); MIC [6]: 8 µM (≈ 16.1 µg/mL); MIC [7]: 16 µM (≈ 32.2 µg/mL) |
| O=C(N[C@H](CO)[C@H](O)c1ccc([N+](=O)[O-])cc1)C(Cl)Cl [chloramphenicol, reference compound] | – | – | – | – | – | – | – | – | – | – | – | – | – | – | – | – | – | – | – | 8 µM (≈ 2.59 µg/mL) | – |
| CO/N=C(\C(=O)N[C@@H]1C(=O)N2C(C(=O)O)=C(COC(C)=O)CS[C@H]12)c1csc(N)n1 [cefotaxime, reference compound] | – | – | – | – | – | – | – | – | – | – | – | – | – | – | – | – | – | – | – | 2 µM (≈ 0.911 µg/mL) | – |
| [H]/N=C(/N)N[C@H]1[C@H](O)[C@@H](O)[C@H](O[C@@H]2O[C@@H](C)[C@](O)(C=O)[C@H]2O[C@@H]2O[C@@H](CO)[C@H](O)[C@@H](O)[C@@H]2NC)[C@@H](N/C(N)=N\[H])[C@@H]1O [streptomycin, reference compound] | – | – | – | – | – | – | – | – | – | – | – | – | – | – | – | – | – | – | – | 2 µM (≈ 1.16 µg/mL) | – |
| O=C(O)c1cn(C2CC2)c2cc(N3CCNCC3)c(F)cc2c1=O [ciprofloxacin, reference compound] | – | – | – | – | – | – | – | – | – | – | – | – | – | – | – | – | – | – | – | 8 µM (≈ 2.65 µg/mL) | – |
